Here are results for two compounds from article PMC12291851, “Hydrogen Sulfide (H2S)-Donating Formyl Peptide Receptor 2 (FPR2) Agonists: Design, Synthesis, and Biological Evaluation in Primary Mouse Microglia Culture” (Antioxidants, 2025).

Series [1] can be described thus: Cell-free H2S release fluorescence assay with probe 9 (7-azido-4-methylcoumarin). In kind it is physicochemical. The note with it: PBS/DMSO 10%, 37 °C, probe 9 100 μM. As for the experimental part:
The H2S release fluorescence assay was carried out in a final volume of 100 μL PBS/DMSO 10% in black 96-well plates. Solutions with decreasing concentrations of each tested compound were prepared in PBS/DMSO 10%. Then, 50 μL of each solution was dispensed in triplicate in each well. Starting from a 10 mM stock solution, a 200 μM solution of probe 9 was prepared and stored in the dark until 50 μL was dispensed in each well. Blank wells containing only the probe at 100 μM in 100 μL of PBS/DMSO 10% are also prepared. A H2S calibration curve was obtained by incubating solutions of NaSH with the probe under the same conditions, although a different plate was used to minimize interferences due to the diffusion of rapidly released H2S. After 24 h and 48 h incubation in a humidified incubator at 37 °C, 5% CO2, fluorescence reads are obtained from each well with a plate reader TECAN M1000 Pro (Tecan, Männedorf, Switzerland), at λex = 350 nm and λem = 440 nm. Each experiment was replicated at least three times. The data were processed using Microsoft Excel (Microsoft, Redmond, WA, USA) and GraphPad Prism 7 (GraphPad Software, La Jolla, CA, USA).
Compound 9 is a turn-on fluorescent probe that features an azido moiety which can be reduced to amine by H2S, leading to the formation of the fluorescent derivative 7-amino-4-methylcoumarin 10 (λex = 350 nm and λem = 440 nm, Scheme 2). We included NaHS in the assay as a positive control and 3a as a negative control.

Series [2] can be described thus: Cell-free MTT-based H2S release assay. In kind it is physicochemical. The settings on record: 24 h incubation in MEM with 10% DMSO. As for the experimental part: Solutions at different concentrations of each compound in 100 µL of serum-free MEM/10% DMSO with 0.5 mg/mL 3-(4,5-dimethylthiazol-2yl)-2,5-diphenyltetrazolium bromide (MTT) were incubated for 5 h or 24 h in a humidified incubator at 37 °C in 5% CO2 atmosphere. The experimental design comprised blank wells containing only medium and MTT, and a H2S calibration curve obtained by incubating nine solutions at decreasing concentrations (100 µM to 0.01 µM) of NaHS in medium and MTT. At the end of incubation time, the supernatant was removed, the […] crystals were dissolved in 100 µL DMSO/EtOH (1:1 v/v), and absorbance values were read using a Victor 3 plate reader (PerkinElmer, Shelton, CT, USA) at 570 nm. H2S values are expressed as mean ± S.E.M. of the results of three independent experiments conducted in triplicate, and were plotted using GraphPad Prism 7.
To decipher such results and considering the redox properties of H2S, we questioned if H2S released by our compounds in the culture media could interfere with the conversion of MTT (3-[4,5-dimethylthiazol-2-yl]-2,5-diphenyl tetrazolium bromide) to formazan, which is usually related to cell viability. Thus, we ran cell-free experiments in which MTT was used as the substrate to capture the reductive action of H2S. We found, in agreement with Gerő et al., that some of our thioureas and thioamides reduced MTT to formazan after 24 h incubation in MEM with 10% DMSO.

Turning to `N#Cc1ccc(C[C@H](NC(=O)Nc2ccc(F)cc2)C(=S)N2CCc3ccccc32)cc1` [7b, (S)-1-[3-(4-Cyanophenyl)-1-(indolin-1-yl)-1-thioxopropan-2-yl]-3-(4-fluorophenyl)urea], the “H2S release detected with probe 9 in aqueous media” value is recorded as “detected H2S release” in series [1] (24 h incubation) and “more intense” in series [1] (48 h incubation). Further, the “absorbance signal (MTT reduction to formazan) indicative of H2S release” value in series [2] is given as “robust absorbance signal”.

Consider `N#Cc1ccc(C[C@H](NC(=O)Nc2ccc(Br)cc2)C(=S)N2CCc3ccccc32)cc1` [8b, (S)-1-(4-Bromophenyl)-3-[3-(4-cyanophenyl)-1-(indolin-1-yl)-1-thioxopropan-2-yl]urea], for which, in series [1] (48 h incubation), the “H2S release detected with probe 9 in aqueous media” value was “limited capability to release H2S”. Also, in series [2], the “absorbance signal (MTT reduction to formazan) indicative of H2S release” value is recorded as “below the assay’s detection limit”.
